# In patent US20250197485A1, “Anti-ED-A Antibodies for the Treatment of Pulmonary Hypertension” (Universitätsklinikum Jena, priority 2022, published 2025):
# Experiments:
# [1] = tested on: MCT-induced PH; experiment: Histological evaluation of lung tissue damage (sum-score) in mouse model of MCT-induced PH; assay type: in vivo, C57BL/6 mice; settings: MAC p=0.020; F8 IgG p=0.005; KSF IgG p=0.907
# From the text: PH was induced in C57BL/6 mice (bodyweight: 25-30 g). The animals were obtained from ZET facility (Zentale Experimentelle Tierhaltung) of the University Hospital Jena (UKJ, Jena, Germany). Prior to PH induction, mice were allowed to acclimatize for at least 7 days with ad libitum access to food and water as well as controlled light/dark cycles. 41 animals were investigated divided into the following five experimental groups: • 1) sham induced controls (n=7) • 2) MCT induced PH (n=12) • 3) MCT induced PH+MAC (n=6) • 4) MCT induced PH+F8 IgG (n=8) • 5) MCT induced PH+KSF IgG (n=8) For PH induction, the Monocrotaline (MCT, Carl Roth, Germany) method was used. The sham induced controls were injected with 30 μl NaCl not containing MCT at day 1 (single dose; intraperitoneally, i.p.). […] The other 4 experimental groups were injected with MCT to induce PH (single dose; intraperitoneally, i.p.; 60 mg/kg body weight; volume 30 μl). Animals in the MCT induced PH+MAC group received the drug (Macitentan, Actelion Pharmaceuticals Ltd.) from day 14 to day 28 (once daily; per os; 15 mg/kg body weight). Animals in the MCT induced PH+F8 IgG group received F8 IgG 3 times on day 14, 16 and 18 (intravenously, i.v.; 195 μg/injection; volume 200 μl). Similarly, animals in the MCT induced PH+KSF IgG group received KSF IgG 3 times on day 14, 16 and 18 (intravenously, i.v.; 195 μg/injection; volume 120 μl). Microscopic evaluation to assess histopathological lung tissue damage was performed using H&E as well as Sirius Red stained lung tissue sections according to a defined sum-score (between 0 and 12; maximum score value=highest level of tissue damage) integrating certain histological alterations frequently occurring in PH: percentage of atelectasis area, percentage of emphysema area, degree of media hypertrophy of peribronchial arteries, presence of perivascular cellular edema of peribronchial arteries, and degree of media hypertrophy of small arteries. Statistical analyses were performed using IBM SPSS statistical software, version 28.0 (IBM SPSS Statistics for Windows. Armonk, NY, USA). Data are expressed as mean±standard deviation. Kruskal-Wallis and Mann-Whitney-U test were used to test for significant differences between the different groups. A p-value<0.05 as statistically significant.
# [2] = tested on: MCT-induced PH; experiment: Right heart catheterization (RVPsys) in mouse model of MCT-induced PH; assay type: in vivo, C57BL/6 mice; settings: day 28; F8 IgG 195 μg i.v. day 14, 16, 18 (p=0.010); MAC 15 mg/kg per os once daily day 14-28 (n.s.)
# From the text: PH was induced in C57BL/6 mice (bodyweight: 25-30 g). The animals were obtained from ZET facility (Zentale Experimentelle Tierhaltung) of the University Hospital Jena (UKJ, Jena, Germany). Prior to PH induction, mice were allowed to acclimatize for at least 7 days with ad libitum access to food and water as well as controlled light/dark cycles. 41 animals were investigated divided into the following five experimental groups: • 1) sham induced controls (n=7) • 2) MCT induced PH (n=12) • 3) MCT induced PH+MAC (n=6) • 4) MCT induced PH+F8 IgG (n=8) • 5) MCT induced PH+KSF IgG (n=8)
# For PH induction, the Monocrotaline (MCT, Carl Roth, Germany) method was used.
# The sham induced controls were injected with 30 μl NaCl not containing MCT at day 1 (single dose; intraperitoneally, i.p.). […] The other 4 experimental groups were injected with MCT to induce PH (single dose; intraperitoneally, i.p.; 60 mg/kg body weight; volume 30 μl). Animals in the MCT induced PH+MAC group received the drug (Macitentan, Actelion Pharmaceuticals Ltd.) from day 14 to day 28 (once daily; per os; 15 mg/kg body weight). Animals in the MCT induced PH+F8 IgG group received F8 IgG 3 times on day 14, 16 and 18 (intravenously, i.v.; 195 μg/injection; volume 200 μl). Similarly, animals in the MCT induced PH+KSF IgG group received KSF IgG 3 times on day 14, 16 and 18 (intravenously, i.v.; 195 μg/injection; volume 120 μl).
# On day 28 after MCT injection, mice of all experimental groups were deeply anesthetized with a single dose of 100 mg/kg body weight ketamine and 10 mg/kg body weight Xylazin in approximately 60 μl each administered i.p.
# Right heart catheterization using a 1.4 F micro conductance pressure-volume catheter (Model SPR-839; Millar Instruments Inc; PowerLab system, ADInstruments Ltd., Oxford, UK) was performed via the right vena jugularis interna to measure the systolic right ventricular pressure and thereby verify the success of the experimental setting. Mice were then sacrificed in deep anesthesia and analgesia to carry out cardiac blood collection after thoracotomy and to harvest the organs.
# Statistical analyses were performed using IBM SPSS statistical software, version 28.0 (IBM SPSS Statistics for Windows. Armonk, NY, USA). Data are expressed as mean±standard deviation. Kruskal-Wallis and Mann-Whitney-U test were used to test for significant differences between the different groups. A p-value<0.05 as statistically significant.
Compound,histopathological lung tissue damage (sum-score 0 to 12) compared to the MCT-induced PH group without treatment [1],attenuation in RVPsys compared to the MCT-induced PH group without treatment (positive control) [2]
"CCCNS(=O)(=O)Nc1ncnc(OCCOc2ncc(Br)cn2)c1-c1ccc(Br)cc1 [MAC, Macitentan, reference compound]",significantly reduced,not significant
"KSF IgG: Negative control chimaeric antibody specific for hen egg lysozyme, an irrelevant antigen; heavy chain SEQ ID NO: 15, light chain SEQ ID NO: 16 [reference compound]",No reduction,–
